Measured values taken from paper PMC10060577, “Synthesis and physicochemical characterization of acyl myricetins as potential anti-neuroexocytotic agents” (Scientific Reports, 2023).
Where two headings read alike, the source gives them in different places.

Tests used:
[1] = tested on: hen egg chorioallantoic membrane; experiment: HET-CAM test (hen egg chorioallantoic membrane irritancy); format: in vivo, chicken; conditions: 2 mL of 1 mg·mL^−1 solution, images 1 min after addition; for HET-CAM Score: graded from 0 (no irritation) to 3 (strong irritation)
Description: The HET-CAM is used for detecting ophthalmic irritancy in vivo[35]. For the HET-CAM, fertilized eggs were obtained from a local market in Korea and incubated for 10 days (37.5 °C and 45% humidity), by maintaining autorotation at 90°·h^−1 to ensure proper development and viability of the embryos. After incubation, the upper shell was cut in a circular shape, without damaging the inner membrane. Immediately after cutting, the inner membrane was carefully removed with forceps, to avoid injury to the blood vessels, and 2 mL of acyl myricetin solutions were placed on the CAM. Prior to the treatment, the solutions were prepared by mixing 1.9 mL of PBS and 100 μL of DMSO dissolving acyl myricetins, to prevent sedimentation of the crystalline solute. A mixture of PBS (1.9 mL) and DMSO (100 μL), and 1 M NaOH aqueous solution were used as negative and positive controls, respectively. Next, by turning an LED flashlight at the bottom of eggshell, CAM images were obtained 1 min after samples addition.
Based on the CAM images, the severity of any hemorrhage, blood-coagulation, and hyperemia was graded from 0 (no irritation) to 3 (strong irritation) according to a previously developed scoring method. We analyzed the CAM images using ImageJ (http://rsb.info.nih.gov/ij/) to prevent arbitrary judgments with respect to the previous scoring method; then we selected blood vessels in the CAM images, and measured hemorrhage, blood-coagulation, and hyperemia as follows. First, the CAM images were loaded individually into ImageJ, cropped to a fixed size to exclude the shell, and converted to grayscale. The CAM images, grayscaled with red stack, were adjusted using the MidGrey method, and the area fraction (%Area) values of black pixels in the adjusted CAM images were measured and recorded.

[2] = tested on: differentiated PC-12 cells; experiment: Acetylcholine release assay; format: cell-based; conditions: 12 h incubation, read-out: EC50 (inhibition of acetylcholine release)
Description: PC-12 cells, obtained from Korean Cell Line Bank (KCLB, Seoul, Korea), were cultured in media containing 84% (v/v) RPMI 1640 medium, 10% (v/v) heat-inactivated horse serum, 5% (v/v) heat-inactivated FBS, and 1% (v/v) antibiotic-antimycotic (100×) solution, under humidified conditions (37 °C, 5% CO2). The culture medium was refreshed every other day. Prior to further experiments, the viability of the cells in passages 1-5 was assessed using the trypan blue exclusion test. Harvested PC-12 cells were seeded into 24-well plates coated with poly-D-[…] × 10^5 cells per well) and grown in the culture media for one day (37 °C, 5% CO2). […] GIBCO/Invitrogen) and incubated for 5 days. Then, the media were replaced with the low serum medium containing the acyl […] incubated for 12 h. Next, the acetylcholine released from the cells into the medium was quantified using an Acetylcholine Assay Kit (Fluorometric; Cell Biolabs, Inc., CA, USA) and the Synergy H1 (λex/λem, 530 nm/600 nm). Subsequently, using the Kit, the amount of released acetylcholine was determined by subtracting the basal level signal from the signal for sample-treated cells.

[3] = Stability assessment against oxidation in aqueous solution by UV/Vis absorbance spectra; format: physicochemical; conditions: PBS pH 7, 37 °C; for decay rate constant k: absorbance at 376 nm, exponential decay-plateau fitting
Description: To assess their stability in an aqueous environment at pH 7 and 37 °C, UV/Vis-light absorbance spectra of the separated acyl […] obtained using the Synergy H1 (BioTek Instruments Inc.; measuring interval of 3 nm, 25 °C), at a wavelength-range of 250-600 nm[34]. One hundred microliters of the separated esters (20 μg·mL^-1), dissolved in DMSO, were mixed in a micro-tube (2 mL) with 1.9 mL of phosphate buffered saline (PBS), pre-adjusted to pH 7 with 1 M HCl aqueous solution. After covering with a lid, the mixture was immediately incubated for 18 h in a heating shaking drybath (S08040; Thermo Scientific) at 37 °C, shaken at 700 rpm. […] The amount of non-oxidized acyl myricetin was determined, based on the absorbance ( abs ) at a wavelength of 376 nm at incubation time ( t ). An exponential decay-plateau fitting method was employed to determine decay rate constant values ( k , s^-1) for the acyl […] follows: ln(abs/abs0)=-[…]) where abs0 is the absorbance at the initiation of incubation and tp is the time in which the left side ( -kt ) reaches the plateau constant ( p ). The non-oxidized proportion of the esters, after all the incubation, was described as e^p . Monitoring the shift of specific peaks in the spectra for the acyl […] could be important for application in food and cosmetics because this can indirectly indicate color changes in the product, which would be unwelcomed to most of the customers. Therefore, the center of gravity in the spectra of the M esters was determined as follows, in order to monitor the shift of specific peaks Centerofgravitycg=∑(absiλi)/∑(absi) where absi is the absorbance at a specific wavelength ( λi , 300-400 nm). Based on the cg estimated during the incubations, the cg shifting rate ( k1 ) was determined using the two segment linear fitting curves as follows: […]1=[…] intercepts of linear curves for the left and right sides, respectively, t1 is the time that the left side ( k1t+cg1 ) takes to become the right side ( k2t+cg2 ), and k2 is an inclination of curve toward the right side.

PC-12 cells = experiment: Neutral red uptake (NRU) cytotoxicity assay; format: cell-based; conditions: 12 h incubation
Description: (§1) PC-12 cells, obtained from Korean Cell Line Bank (KCLB, Seoul, Korea), were cultured in media containing 84% (v/v) RPMI 1640 medium, 10% (v/v) heat-inactivated horse serum, 5% (v/v) heat-inactivated FBS, and 1% (v/v) antibiotic-antimycotic (100×) solution, under humidified conditions (37 °C, 5% CO2). The culture medium was refreshed every other day. Prior to further experiments, the viability of the cells in passages 1-5 was assessed using the trypan blue exclusion test. Harvested PC-12 cells (~ 80% confluency per well) were seeded into 96-well plates coated with type I-collagen and grown in the culture media for one day (37 °C, 5% CO2). Cells were treated with media containing the acyl […] incubated for 12 h. The media were aspirated, and cells were then incubated for 2 h with 0.33% (w/v) neutral red dissolved in the media. After the incubation, the neutral red media were carefully withdrawn, and cells were rinsed twice with PBS at 37 °C and dried for 1 h. Next, neutral red contained in the dried cells was extracted and solubilized with a solution of 50% (v/v) ethanol, 49% (v/v) DDW, and 1% (v/v) acetic acid, by incubating for 10 min. Absorbance of the neutral red-containing solution at 540 nm was recoded using the Synergy H1. Cell viability was determined based on the absorbance of treated cells compared to that of untreated cells (without acyl […]).

[4] = Neutral red uptake (NRU) cytotoxicity assay; format: cell-based; conditions: rat, PC-12 cells, 12 h incubation
Description: as §1

[5] = Determination of 1-octanol/water partition coefficients (logP); format: physicochemical; conditions: 1-octanol/water (DDW); 1-octanol/DDW, 25 °C
Description: Values for logP were determined to quantify the lipophilicity or hydrophilicity of the separated acyl myricetins, using the previously reported method with slight modifications. After the addition of 1-octanol (500 μL) into 2 mL micro-tubes containing 1 mg of the separated acyl myricetins, the micro-tubes were vortexed for 1 min, followed by sonication (bath-type) for 5 min, and then 500 μL of DDW was added to the tubes. Next, the mixed solutions in the tubes were vortexed again for 5 min and phase-separated by centrifugation (3000 relative centrifugal force for 10 min at 25 °C). The 40 μL of upper layer (1-octanol) and 100 μL of lower layer (DDW) were collected and diluted with 1.96 mL of 1-octanol and 100 μL of DMSO, respectively. The solutes dissolved in the upper and lower layers were quantified based on the standard curves obtained from the UV/Vis-light absorbance spectra (250‒600 nm) using a microplate reader (Synergy H1; BioTek Instruments Inc., VT, USA; measuring interval of 3 nm, at 25 °C). Finally, the logP values were calculated as log(coctanol/cDDW), where coctanol and cDDW are the concentrations of the solutes in the upper and lower layers, respectively.

Compound | HET-CAM Description [1] | HET-CAM Score [1] | EC50 [2] [µM] | k value fold lower than that of myricetin [3] | times by which the myricetin cg shift is faster than that of the compound [3] | decay rate constant k [3] [s⁻¹] | EC50 ([2]; Rattus norvegicus) [µM] | CC50 (PC-12 cells) [µM] | CC50 at 12 h [4] [µM] | logP at 5 min [5]
[Na+].[OH-] [1 M NaOH, NaOH, reference compound] | Severe irritant | 3 | – | – | – | – | – | – | – | –
monooctanoyl-myricetin [MO1] | Non irritant | 0 | 2.51 ± 0.89 | ~ 3.1 fold | ~ 2.3 fold | 0.00012 | – | – | – | –
O=c1c(O)c(-c2cc(O)c(O)c(O)c2)oc2cc(O)cc(O)c12 [M, myricetin] | Non irritant | 0 | – | – | – | 0.00037 | 5.36 ± 0.2 | 66.4 ± 10.9 | 65.4 | 1.34 ± 0.1
dipropionyl-myricetin [MP2] | Non irritant | 0 | 3.58 ± 0.75 | 2.7 fold | 5.1 fold | 0.00013 | – | – | – | –
monopropionyl-myricetin [MP1] | Non irritant | 0 | 3.84 ± 1.08 | ~ 1.9 fold | ~ 2.4 fold | 0.0002 | – | – | – | –
